Laboratory results as given in US10272056B2, “Treatment for mitochondrial diseases” (The George Washington University a Congressionally …, priority 2015, dated 2019).
Like-named read-outs stand apart in the source and are kept apart here.

What was measured:
PC12-ND6 cells [1] = test: Cell death upon chloramphenicol exposure; assay type: cell-based; conditions: chloramphenicol 0, 15, 30, 60 μM, two days
Excerpt: (§1) FIG. 14A-14E are images from microscopy showing that pre-treatment of PC12-ND6 cells with NaBt prevents chloramphenicol-mediated decrease of mitochondrial mass. (A) Graph of PC12-ND6 cell death upon exposure to different concentrations of chloramphenicol (Cm). Percent of cell death±SEM (n=250 cells). (B) Quantitative immunoblot analysis of mitochondrial-encoded MT-CO1 protein (green) and nuclear-encoded SDH-A protein (red) in Cm-treated PC12-ND6 cells. (C) Graph of MT-CO1/SDH-A ratio normalized to untreated PC12-ND6 cells. Mean±SEM (n=3; compared to untreated cells *p=0.0052, **p=0.0048, and ***p=0.0034). (D) Confocal micrographs of untreated and Cm-treated PC12-ND6 cells transfected with the vector mito-GFP. Scale bar represents 5 μm. (E) Confocal micrographs of NaBt pre-treated PC12-ND6 cells transfected with the vector mito-GFP and exposed to Cm. Scale bar represents 5 μm.
(§2) The efficacy of chloramphenicol treatment was determined by simultaneously examining the expression levels of the nuclear-encoded succinate dehydrogenase (SDH-A) subunit of Complex II and the mitochondrial-encoded subunit I of Complex IV (MT-COI) using a quantitative immunoblot approach. […] The effect of chloramphenicol on mitochondrial mass by live-cell confocal microscopy using PC12-ND6 cells transfected with the vector mito-GFP was confirmed.

SDH-A = test: Quantitative immunoblot of nuclear-encoded SDH-A; assay type: cell-based; conditions: chloramphenicol 15-60 μM
Excerpt: as §1, §2

MT-COI = test: Quantitative immunoblot of mitochondrial-encoded MT-COI; assay type: cell-based; conditions: lowest dose of chloramphenicol
Excerpt: as §1, §2

PC12-ND6 cells [2] = test: Mitochondrial mass under chloramphenicol (mito-GFP live-cell confocal microscopy); assay type: cell-based; conditions: chloramphenicol-treated
Excerpt: as §1, §2

PC12-ND6 cells [3] = test: NGF (100 ng/ml)-mediated neurite outgrowth after chloramphenicol; assay type: cell-based; conditions: chloramphenicol lowest concentration two days, then NGF 100 ng/ml three days
Excerpt: FIG. 15A-15C are images from microscopy and a graph showing that Pre-treatment of PC12-ND6 cells negates the inhibitory effect of chloramphenicol on NGF-mediated neuronal differentiation. (A) Confocal micrographs of untreated and Cm-treated PC12-ND6 cells transfected with the vector mito-GFP and exposed to NGF. Scale bar represents 20 μm. (B) Confocal micrographs of NaBt pre-treated PC12-ND6 cells transfected with the vector mito-GFP and exposed to chloramphenicol prior to NGF treatment. Scale bar represents 20 μm. (C) Graph of average total neurite length. Mean±SEM (n=50 cells; compared to untreated PC12-ND6 cells *p=0.0001; compared to non-NaBt-treated PC12-ND6 cells with corresponding Cm concentration **p=0.0001).
Based on the results that NaBt endows PC12-ND6 cells with increased mitochondrial mass through biogenesis, resulting in accelerated neuronal differentiation, it was examined whether exposure to NaBt for three days could confer protection to chloramphenicol-mediated inhibition of neuronal differentiation upon NGF signaling.

[4] = test system: E17.5 hippocampal neurons; test: Neuronal stage 3 frequency with chloramphenicol and NaBt; assay type: cell-based; conditions: no NaBt
Excerpt: FIG. 16A-16I are images from microscopy and a graph showing that Pre-treatment of E17.5 hippocampal neurons with NaBt protects against chloramphenicol-induced loss of neuronal differentiation. (A-D) Confocal micrographs of E17.5 hippocampal neurons exposed to different concentrations of chloramphenicol at 2DIV and labeled with anti tubulin antibody (red) and nuclear counterstain DAPI (blue) at 3DIV. Scale bar represents 10 μm. (E-H) Confocal micrographs of E17.5 hippocampal neurons treated with NaBt (2 mM) at 1DIV prior to exposure to different concentrations of chloramphenicol at 2DIV and labeled with anti tubulin antibody (red) and nuclear counterstain DAPI (blue) at 3DIV. Scale bar represents 10 μm. (I) Graph of E17.5 β-III^+ hippocampal neurons at the neuronal stage 3. Mean±S.D. (n=250 cells; compared to untreated control *p=0.0001; compared to the corresponding non-NaBt treated sample **p=0.0001; compared to non-NaBt treated cells exposed to Cm at 30 μM‡p=0.007).
The consequences of chloramphenicol exposure on untreated or NaBt-treated E17.5 hippocampal neurons was examined. At 1DIV, dissociated E17.5 hippocampal neurons were switched to differentiation medium in the absence or presence of NaBt (2 mM) for 24 hours before being treated with increasing concentrations of chloramphenicol (0, 15, 30, and 60 μM) for 24 hours. At 3DIV, their phenotypic differentiation was examined by immunocytochemistry using an antibody against the pan-neuronal marker β-III tubulin and quantified the percent of neurons having reached the developmental stage 3 for each experimental condition. As expected, only half of untreated neurons reached stage 3 in the absence of NaBt, while more than 90% of NaBt-treated neurons achieved such degree of differentiation, thereby forming an elaborate neuritic network (FIGS. 16A, E, and I).

MELAS fibroblasts [5] = test: Mitochondrial mass, morphology and networking (MTG live cell confocal analysis); assay type: cell-based, human; conditions: three-day exposure; NaBt 2.5 mM, TBN 1.5 mM, AN9 300 μM
Excerpt: FIG. 17A-17C are images from microscopy and graphs showing that butyrates rescue the mitochondrial phenotype in MELAS fibroblasts. (A) Confocal analysis of healthy and MELAS fibroblasts treated as indicated and labeled with the MTG dye; scale bar=10 (B) Analysis of the mitochondrial mass; n=3 (60 cells per experiment; ^‡p<0.05, unpaired T-test *p<0.05, paired T-test). (C) Analysis of Δψm (^‡p<0.05, unpaired T-test; *p<0.05, paired T-test).
(§3) Butyrates rescue the mitochondrial mass, morphology, networking, membrane potential, and cellular ATP levels in MELAS fibroblasts. Skin fibroblasts from two MELAS patients and from a healthy subject as a control were used. Dose-dependent analyses of butyrates to determine their best concentrations for eliciting an optimal mitochondrial response without cellular toxicity was performed. Healthy and MELAS fibroblasts were treated with PBS, NaBt (2.5 mM), TBN (1.5 mM), or AN9 (300 μM) for three days before labeling with the MTG dye for live cell confocal analysis.
as §3, with “networking, and” for “networking,”, “potential” for “potential, and cellular ATP levels”, “butyrates was performed” for “butyrates”, “toxicity.” for “toxicity was performed.”

MELAS fibroblasts [6] = test: Morphometric analysis of mitochondrial connectivity (Image J); assay type: cell-based, human; conditions: Image J analysis of MTG-labeled fibroblasts
Method: FIG. 18 is a graph showing that butyrate and its derivatives rescue the mitochondrial dynamics and connectivity in MELAS fibroblasts.
as §3, with “networking, and” for “networking,”, “potential” for “potential, and cellular ATP levels”, “butyrates was performed” for “butyrates”, “toxicity.” for “toxicity was performed.”

[7] = test system: healthy and MELAS fibroblasts; test: Dose-dependent studies for optimal safe concentrations; assay type: cell-based, human; conditions: three days of treatment
Excerpt: Experimental approaches. Five distinct molecular tools were used to investigate mitochondrial biogenesis: 1) the mitochondrial-specific dyes, MitoTracker® Green (MTG) and MitoTracker® Red (MTR); 2) the mito-GFP or mito-dsRed vector to fluorescently label mitochondria; 3) antibodies against mtDNA, COXVα, or SOD2; 4) the fluorescent PicoGreen® dye labeling mtDNA; and 5) quantitative PCR to determine mtDNA copy number.
as §3

[8] = cited from earlier work; for toxicity or side effects on oral administration: TBN 1.5 mM, AN9 300 μM concentrations
[9] = cited from earlier work
MELAS fibroblasts [10] = test: Apoptosis induced by hydroxamate HDACis; assay type: cell-based, human
PC12-ND6 cells [11] = conditions: TSA 0.66 μM, control HDAC inhibitor; cited from earlier work
[12] = human, in vivo; cited from earlier work
PC12-ND6 cells [13] = conditions: dbcAMP alone, PC12 cell system; cited from earlier work

SMILES: O=C(N[C@H](CO)[C@H](O)c1ccc([N+](=O)[O-])cc1)C(Cl)Cl [chloramphenicol]
- cell death (PC12-ND6 cells [1]): negligible cell death
- SDH-A expression levels (SDH-A): none of the chloramphenicol concentrations altered
- MT-COI expression (MT-COI): abolished most of MT-COI expression
- mitochondrial mass (PC12-ND6 cells [2]): concentration-dependent decrease of mitochondrial mass
- reduction in total neurite length (PC12-ND6 cells [3]): 43%
- percent of neurons at stage 3 ([4]; chloramphenicol 15 μM): did not alter the percent of neurons at stage 3
- decreased transition to stage 3 ([4]; chloramphenicol 30 μM): 27%
- decreased transition to stage 3 ([4]; chloramphenicol 60 μM): 54%

SMILES: CCCC(=O)OCOC(=O)C(C)(C)C [AN9, pivaloyloxymethyl butyrate]
- mitochondrial mass, morphology, and networking (MELAS fibroblasts [5]): restored normal mitochondrial mass, morphology, and networking
- connectivity among mitochondria (MELAS fibroblasts [6]): rescue the connectivity among mitochondria
- optimal safe concentration for eliciting maximal mitochondrial biogenesis without cellular toxicity [7]: 300 µM
- toxicity or side effects on oral administration [8]: without toxicity or side effects
- toxicity ([8]; in vivo): low toxicity
- oral pharmacological concentrations relative to NaBt ([8]; orally administered): 140 times lower than NaBt
- cell membrane permeability [9]: increased cell membrane permeability

SMILES: CCCC(=O)OCC(COC(=O)CCC)OC(=O)CCC [TBN, tributyrin]
- mitochondrial mass, morphology, and networking (MELAS fibroblasts [5]): restored normal mitochondrial mass, morphology, and networking
- connectivity among mitochondria (MELAS fibroblasts [6]): rescue the connectivity among mitochondria
- optimal safe concentration for eliciting maximal mitochondrial biogenesis without cellular toxicity [7]: 1500 µM
- toxicity or side effects on oral administration [8]: without toxicity or side effects
- concentration pharmacologically attainable via oral administration without toxicity or side effects ([8]; oral): up to 2 mM

SMILES: O=C(CCCCCCC(=O)Nc1ccccc1)NO [vorinostat]
- apoptosis (MELAS fibroblasts [10]): induce apoptosis

SMILES: CC(/C=C/C(=O)NO)=C\[C@@H](C)C(=O)c1ccc(N(C)C)cc1 [trichostatin A]
- apoptosis (MELAS fibroblasts [10]): induce apoptosis
- cell death (PC12-ND6 cells [11]): mild cell death

SMILES: CCCC(CCC)C(=O)O [Valproic acid]
- effect on seizures [12]: propensity to worsen seizures

SMILES: CCCC(=O)Nc1ncnc2c1ncn2[C@@H]1O[C@@H]2COP(=O)(O)O[C@H]2[C@H]1OC(=O)CCC [dbcAMP]
- neurite length (PC12-ND6 cells [13]): 15-20 μm
